Test results reported in patent US11000033B2, “Ketone or oxime compound, and herbicide” (NISSAN CHEMICAL CORPORATION, priority 2014, dated 2021).

Columns and labels:
Assay type in all cases: in vivo
[1] = test system: Echinochloa crus-galli var. crus-galli; assay: Test Example 4: herbicidal effect by soil treatment (symbol H); conditions: application herbicide amount 320 g/ha
How it was run: (§1)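 Seeds were sown in sterilized diluvial soil, covered with about 1.5 cm of soil, and the soil surface was sprayed with a water-diluted emulsion of the compound at a predetermined rate. Plants grew in a greenhouse at 25° C. to 30° C.; effects were scored visually 3 weeks after application.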

rapeseed = assay: Test Example 4: effect on crop by soil treatment (symbol g); conditions: application herbicide amount 320 g/ha
How it was run: (§2)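 The test used sterilized diluvial soil. Seed was set down in spots and overlaid with about 1.5 cm of soil before growth in a greenhouse kept at 25° C. to 30° C.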

[2] = test system: Echinochloa crus-galli var. crus-galli; assay: Test Example 3: herbicidal effect by foliage application, Wagner pot (symbol H); conditions: application herbicide amount 320 g/ha
How it was run: (§3)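 The compound, formulated as an emulsion and diluted with water to a predetermined rate, is applied uniformly to leaves of two-week-old seedlings growing in submerged alluvial soil at 25–30 °C. Rice is included. Each plant is assessed 3 weeks later using defined criteria.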

Apera spica-venti [3] = assay: Test Example 5: herbicidal effect by foliage application, plastic box (symbol L); conditions: 320 g/ha, 3 weeks after application
How it was run: (§4)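 Visual herbicidal score, taken three weeks post-application, of seedlings sprayed on the foliage with water-diluted emulsion at a predetermined amount; plants were 14 days old, greenhouse-raised at 25° C. to 30° C.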

Scirpus juncoides = assay: Test Example 2: herbicidal activity, application during weed generation in submerged conditions (symbol B); conditions: Table 23; application herbicide amount 320 g/ha; grade 0-5 by criteria of Test Example 1
How it was run: (§5)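 Treatment timing was the one- to two-leaf stage, with diluted emulsifiable compound dropped onto the paddy water (depth 4 cm) over alluvial soil. All three species grew from a mixed sowing in a 25° C. to 30° C. greenhouse. Injury was judged by eye 3 weeks on.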

[4] = test system: directly sowed rice plant; assay: Test Example 3: effect on crop by foliage application, Wagner pot (symbol b); conditions: application herbicide amount 320 g/ha
How it was run: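 Wagner pot (1/10000 are), alluvial soil, submerged 0.1–0.5 cm; sown E. crus-galli var. crus-galli, L. chinensis, C. difformis, rice; greenhouse 25–30 °C.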

transplanted rice plant = assay: Test Example 1: effect on crop, application before weed generation in submerged conditions (symbol a); conditions: application herbicide amount 320 g/ha
How it was run: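 Alluvial soil pots flooded to 4 cm water, sown with Echinochloa oryzacola, Scirpus juncoides and Monochoria vaginalis, then transplanted with 2.5 leaf stage rice seedlings; pre-emergence application. Greenhouse 25° C. to 30° C.; scored 0–5 by herbicidal ratio 3 weeks after application.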

beet = assay: Test Example 4: effect on crop by soil treatment (symbol f); conditions: application herbicide amount 320 g/ha
How it was run: as §2

Cyperus difformis = assay: Test Example 3: herbicidal effect by foliage application, Wagner pot (symbol E); conditions: application herbicide amount 320 g/ha
How it was run: as §3

Apera spica-venti [5] = assay: Test Example 4: herbicidal effect by soil treatment (symbol L); conditions: application herbicide amount 320 g/ha
How it was run: as §1

Monochoria vaginalis = assay: Test Example 2: herbicidal activity, application during weed generation in submerged conditions (symbol C); conditions: Table 23; application herbicide amount 320 g/ha; grade 0-5 by criteria of Test Example 1
How it was run: as §5

Abutilon theophrasti = assay: Test Example 5: herbicidal effect by foliage application, plastic box (symbol M); conditions: 320 g/ha, 3 weeks after application
How it was run: as §4

Leptochloa chinensis = assay: Test Example 3: herbicidal effect by foliage application, Wagner pot (symbol D); conditions: application herbicide amount 320 g/ha
How it was run: as §3

Stellaria media = assay: Test Example 5: herbicidal effect by foliage application, plastic box (symbol P); conditions: 320 g/ha, 3 weeks after application
How it was run: as §4

Chenopodium album = assay: Test Example 5: herbicidal effect by foliage application, plastic box (symbol O); conditions: 320 g/ha, 3 weeks after application
How it was run: as §4

Row | SMILES | H (Echinochloa crus-galli var. crus-galli) herbicidal effect grade [1] | g (rapeseed) effect on crop grade (rapeseed) | herbicidal effect on H (Echinochloa crus-galli var. crus-galli), grade 0-5 [2] | L: Apera spica-venti, herbicidal effect grade (Apera spica-venti [3]) | Herbicidal effect grade, B: Scirpus juncoides (Scirpus juncoides) | effect on crop b (directly sowed rice plant), grade 0-5 [4] | Effect grade on crop, a: transplanted rice plant (transplanted rice plant) | f (beet) effect on crop grade (beet) | herbicidal effect on E, grade 0-5 (Cyperus difformis) | L (Apera spica-venti) herbicidal effect grade (Apera spica-venti [5]) | Herbicidal effect grade, C: Monochoria vaginalis (Monochoria vaginalis) | M: Abutilon theophrasti, herbicidal effect grade (Abutilon theophrasti) | herbicidal effect on D (Leptochloa chinensis), grade 0-5 (Leptochloa chinensis) | other results
1 | CC(CC1CC(O)=C(c2c(C)cc(C)cc2C)C1=O)=NOCc1ccccc1 (centres unmarked) [1-020] | 5 (Herbicidal ratio of 90% or more (almost completely withered)) | 4 (Herbicidal ratio of 70% or higher and lower than 90%) | 5 (Herbicidal ratio of 90% or more (almost completely withered)) | 5 (Herbicidal ratio of 90% or more (almost completely withered)) | 3 (Herbicidal ratio of 40% or higher and lower than 70%) | 5 (Herbicidal ratio of 90% or more (almost completely withered)) | 5 (Herbicidal ratio of 90% or more (almost completely withered)) | 0 (Herbicidal ratio of 5% or lower (almost no effect)) | 2 (Herbicidal ratio of 20% or higher and lower than 40%) | 5 (Herbicidal ratio of 90% or more (almost completely withered)) | 2 (Herbicidal ratio of 20% or higher and lower than 40%) | 3 (Herbicidal ratio of 40% or higher and lower than 70%) | 5 (Herbicidal ratio of 90% or more (almost completely withered)) | –
2 | CON=C(C)C(C(C)=NOC)C1CC(O)=C(c2c(C)cc(C)cc2C)C1=O (centres unmarked) [1-021] | 0 (Herbicidal ratio of 5% or lower (almost no effect)) | 0 (Herbicidal ratio of 5% or lower (almost no effect)) | 2 (Herbicidal ratio of 20% or higher and lower than 40%) | 4 (Herbicidal ratio of 70% or higher and lower than 90%) | 0 (Herbicidal ratio of 5% or lower (almost no effect)) | 0 (Herbicidal ratio of 5% or lower (almost no effect)) | 0 (Herbicidal ratio of 5% or lower (almost no effect)) | 0 (Herbicidal ratio of 5% or lower (almost no effect)) | 0 (Herbicidal ratio of 5% or lower (almost no effect)) | 0 (Herbicidal ratio of 5% or lower (almost no effect)) | 0 (Herbicidal ratio of 5% or lower (almost no effect)) | 0 (Herbicidal ratio of 5% or lower (almost no effect)) | 0 (Herbicidal ratio of 5% or lower (almost no effect)) | –
3 | CC(CC1CC(O)=C(c2c(C)cc(C)cc2C)C1=O)=NOCc1ccccn1 (centres unmarked) [1-022] | 5 (Herbicidal ratio of 90% or more (almost completely withered)) | – | 5 (Herbicidal ratio of 90% or more (almost completely withered)) | 5 (Herbicidal ratio of 90% or more (almost completely withered)) | 5 (Herbicidal ratio of 90% or more (almost completely withered)) | 5 (Herbicidal ratio of 90% or more (almost completely withered)) | 5 (Herbicidal ratio of 90% or more (almost completely withered)) | 3 (Herbicidal ratio of 40% or higher and lower than 70%) | 4 (Herbicidal ratio of 70% or higher and lower than 90%) | 5 (Herbicidal ratio of 90% or more (almost completely withered)) | 3 (Herbicidal ratio of 40% or higher and lower than 70%) | 1 (Herbicidal ratio of 5% or higher and lower than 20%) | 5 (Herbicidal ratio of 90% or more (almost completely withered)) | P: Stellaria media, herbicidal effect grade (Stellaria media): 3 (Herbicidal ratio of 40% or higher and lower than 70%); O: Chenopodium album, herbicidal effect grade (Chenopodium album): 3 (Herbicidal ratio of 40% or higher and lower than 70%)
4 | CCc1cc(Br)cc(C)c1C1=C(O)CC(C(C(C)=O)C(=O)OC)C1=O (centres unmarked) [7-001] | – | – | 4 (Herbicidal ratio of 70% or higher and lower than 90%) | – | 0 (Herbicidal ratio of 5% or lower (almost no effect)) | 2 (Herbicidal ratio of 20% or higher and lower than 40%) | 0 (Herbicidal ratio of 5% or lower (almost no effect)) | – | 0 (Herbicidal ratio of 5% or lower (almost no effect)) | – | 0 (Herbicidal ratio of 5% or lower (almost no effect)) | – | 5 (Herbicidal ratio of 90% or more (almost completely withered)) | Herbicidal effect grade, H: Echinochloa crus-galli var. crus-galli [1]: 4 (Herbicidal ratio of 70% or higher and lower than 90%); Effect on crop grade, g: rapeseed (rapeseed): 0 (Herbicidal ratio of 5% or lower (almost no effect)); L: Apera spica-venti, herbicidal effect (criteria of Test Example 1) (Apera spica-venti [3]): 3 (Herbicidal ratio of 40% or higher and lower than 70%); Effect on crop grade, f: beet (beet): 0 (Herbicidal ratio of 5% or lower (almost no effect)); Herbicidal effect grade, L: Apera spica-venti (Apera spica-venti [5]): 0 (Herbicidal ratio of 5% or lower (almost no effect)); M: Abutilon theophrasti, herbicidal effect (criteria of Test Example 1) (Abutilon theophrasti): 0 (Herbicidal ratio of 5% or lower (almost no effect))
